From patent US9394555B2, “Compositions comprising a polypeptide having cellulolytic enhancing activity and a dioxy compound and uses thereof” (priority 2010, dated 2016)

B1: T. aurantiacus GH61A polypeptide: GH61A polypeptide having cellulolytic enhancing activity (SEQ ID NO: 14), recombinantly produced in Aspergillus oryzae JaL250 (protein, listed as Thermoascus aurantiacus)
chain: MSFSKIIATAGVLASASLVAGHGFVQNIVIDGKYYGGYLVNQYPYMSNPPEVIAWSTTATDLGFVDGTGYQTPDIICHRGAKPGALTAPVSPGGTVELQWTPWPDSHHGPVINYLAPCNGDCSTVDKTQLEFFKIAESGLINDDNPPGIWASDNLIAANNSWTVTIPTTIAPGNYVLRHEIIALHSAQNQDGAQNYPQCINLQVTGGGSDNPAGTLGTALYHDTDPGILINIYQKLSSYIIPGPPLYTG

What was measured:
[1] = target: T1, T. aurantiacus GH61A polypeptide (Thermoascus aurantiacus, UniProt G3XAP7, N13Y); experiment: Microcrystalline cellulose conversion assay III (Examples 12, 13), T. reesei Cel7B endoglucanase I + A. oryzae CEL3A beta-glucosidase, with and without EDTA; format: biochemical; settings: 72 hours, 50° C.
Method: A 5% microcrystalline cellulose slurry was prepared by addition of 2.5 g of AVICEL® PH101 to a graduated 50 ml screw-cap conical tube followed by approximately 40 ml of deionized water. Each conical tube was then mixed thoroughly by shaking/vortexing, and adjusted to 50 ml total with deionized water and mixed again. Contents of the tube were then quickly transferred to a 100 ml beaker and stirred rapidly with a magnetic stirrer. Five hundred μl aliquots of the 5% AVICEL® slurry were pipetted into wells of a 2.0 ml 96-deepwell plate (Axygen, Union City, Calif., USA) using a 1000 μl micropipette with a wide aperture tip (end of tip cut off about 2 mm from the base). Two hundred μl of deionized water and 100 μl of 10 mM MnSO4-500 mM sodium acetate pH 5 were then added to each well. One hundred μl of either deionized water, a 1% gallic acid solution dissolved in water, or a 1% gallic acid solution containing 50 mM EDTA was added to each well. Enzyme mixtures were prepared and then added simultaneously to all wells in a volume of 100 μl, for a total of 1 ml in each reaction. […] All experiments reported were performed in triplicate.
(§1) Primary analysis of the hydrolysis reactions was performed using an AGILENT® 1100 HPLC with CHEMSTATION® software equipped with an AMINEX™ HPX-87H column. After approximately 4 days, the deep-well plate was removed from the incubator and chilled overnight to 4° C. The plate was then mixed well by inversion and briefly centrifuged 52×g in a SORVALL® RT7 centrifuge for 10 seconds. Samples were then mixed by pipetting, and 200 μl from each well were transferred to a MULTISCREEN® HV centrifuge filter plate assembly. The centrifuge filter plate assembly was centrifuged at 2000 rpm in a SORVALL® RT7 centrifuge for 20 minutes. […] Sugars were detected using a refractive index detector with quantification by integration compared to purified sugar standards.
All HPLC data processing was performed using MICROSOFT EXCEL™ software. […] In this assay only glucose was measured since beta-glucosidase was at high levels in all samples but the controls. The degree of cellulose conversion was calculated using Equation 1. Triplicate data points were averaged and standard deviation was calculated.
The microcrystalline cellulose hydrolysis assay was performed as described in Example 12.
Data were collected and analyzed, as described in Example 12, after 72 hours of incubation at 50° C.

[2] = target: T1, T. aurantiacus GH61A polypeptide; experiment: Bacterial cellulose conversion assay (Examples 15, 16); format: biochemical; settings: 72 hours, 50° C.
Method: Bacterial cellulose was prepared from NATA DE COCO (Huerto International Trading, Lucena City, Philippines) by extensive rinsing of one 500 ml can of cubes with water followed by homogenation for 15 minutes in 0.25 M sodium hydroxide using a WARING BLENDER® (Waring Products, Torrington, Conn., USA). The resulting slurry was pelleted at 40,000×g in a SORVALL® RT7 centrifuge. The supernatant was discarded. The pellet was then resuspended in 0.25 M sodium hydroxide and stirred overnight at 4° C. This procedure was repeated four times. Following the first washing steps, the cellulose was washed six times under similar conditions, substituting water for 0.25 M sodium hydroxide. Following the water washing, the cellulose was again homogenized for 15 minutes in a WARING BLENDER®, and adjusted to a final volume of 250 ml.
A 0.36% bacterial cellulose slurry was prepared as described in Example 14. This 0.36% slurry was thoroughly resuspended by shaking, and quickly transferred to a 100 ml beaker and stirred rapidly with a magnetic stirrer. Seven hundred μl aliquots of the bacterial cellulose slurry were pipetted into wells of a 2.0 ml 96-deepwell plate (Axygen, Union City, Calif.) using a 1000 μl micropipette with a wide aperture tip (end of tip cut off about 2 mm from the base). One hundred μl of 10 mM MnSO4-500 mM sodium acetate pH 5 was then added to each well. One hundred μl of either deionized water, a 1% gallic acid solution dissolved in water, or a 1% gallic acid solution containing 50 mM EDTA were added to each well. Enzyme mixtures were prepared and then added simultaneously to all wells in a volume of 100 μl, for a total of 1 ml in each reaction. […] All experiments reported were performed in triplicate.
as §1
All HPLC data processing was performed using MICROSOFT EXCEL™ software. […] In this assay only glucose was measured since beta-glucosidase was at high levels in all samples but the controls. Percent conversion was determined using Equation 1. Triplicate data points were averaged and standard deviation was calculated.
The bacterial cellulose hydrolysis assay was performed as described in Example 15.
Data was collected and analyzed, as described in Example 15, after 72 hours of incubation at 50° C.

[3] = gallic acid 0.1% w/w + 5 mM EDTA, no enzymes
[4] = gallic acid 0.1% w/w alone, no enzymes

Row | Molecule | conversion of the microcrystalline cellulose ([1]; gallic acid 0.1% w/w + 5 mM EDTA + T. aurantiacus GH61A polypeptide (5 mg/g), no other enzymes) | conversion of the microcrystalline cellulose [1, 3] | conversion of the microcrystalline cellulose [1, 4] | hydrolysis of the bacterial cellulose ([2]; gallic acid 0.1% w/w + 5 mM EDTA + A. oryzae CEL3A beta-glucosidase (50 mg/g), no GH61) | hydrolysis of the bacterial cellulose ([2]; gallic acid 0.1% w/w + 5 mM EDTA + T. aurantiacus GH61A polypeptide (50 mg/g), no beta-glucosidase) | conversion of the bacterial cellulose [2, 3] | hydrolysis of the bacterial cellulose ([2]; gallic acid 0.1% w/w + A. oryzae CEL3A beta-glucosidase (50 mg/g), no GH61) | conversion of the bacterial cellulose [2, 4] | conversion of the microcrystalline cellulose ([1]; T. aurantiacus GH61A polypeptide (5 mg/g) + endoglucanase I + beta-glucosidase (5 mg/g each), no gallic acid) [%] | conversion of microcrystalline cellulose ([1]; T. aurantiacus GH61A polypeptide (5 mg/g) alone) | conversion of the bacterial cellulose ([2]; T. aurantiacus GH61A polypeptide (50 mg/g) + A. oryzae CEL3A beta-glucosidase (50 mg/g), no gallic acid) | conversion of the bacterial cellulose ([2]; T. aurantiacus GH61A polypeptide (50 mg/g) alone) [%]
1 | O=C(O)c1cc(O)c(O)c(O)c1 [gallic acid] | no significant conversion | no significant conversion | no significant conversion | no significant hydrolysis | no significant hydrolysis | no significant conversion | no significant hydrolysis | no significant conversion |  |  |  | 
2 | B1 |  |  |  |  |  |  |  |  | 4.0±0.2 | no significant conversion | no significant conversion | 1.5±1.4
